According to publication PMC11124525, “Pharmacokinetic–Pharmacodynamic Correlation Analysis of Rhodiola crenulata in Rats with Myocardial Ischemia” (Pharmaceuticals, 2024):
“Also recorded” adds a separate entry of the source. Read-outs that look alike come from different tables or passages of the source.

How the values were obtained:
CK = test: PK-PD sigmoid-Emax model, PD index CK in MDG rats; type: in vivo, SD rats; set-up: Emax: unit not given beside the values
[1] = cited from earlier work
HBDH = test: PK-PD sigmoid-Emax model, PD index HBDH in MDG rats; type: in vivo, SD rats; set-up: unit not given beside the values
[2] = PK of five RC components in pituitrin-induced myocardial ischemia (MDG) rats after oral RC extract, HPLC-QQQ-MS/MS, DAS; type: in vivo, SD rats; conditions: for Change of CLZ/F in MDG compared with SDG / Change of Cmax in MDG compared with SDG: MDG vs SDG rats; for AUC(0-t) / AUC(0-inf) / CL/F / Cmax / MRT / MRT inf / Tmax / Vd/F / half-life: rat, plasma; for AUC(0-t): read-out: AUC(0−t); for AUC(0-inf): read-out: AUC(0−∞); for CL/F: read-out: CLz/F (converted); for Cmax: read-out: Cmax; for MRT: read-out: MRT(0−); for MRT inf: read-out: MRT(0−∞); for Vd/F: read-out: Vz/F; for half-life: read-out: t1/2z (converted)
Method: (§1) The drug concentration in plasma was calculated using the standard curve, and the mean blood concentration was plotted against the time to obtain the mean blood concentration–time curve (Figure 4).
(§2) The rat model of MI was made with Pit. The rats were divided into a sham operation group (SG), sham operation administration group (SDG), model group (MG), and model administration group (MDG) (n = 6 for each group). The MI model was prepared via an intraperitoneal injection (a single time) of Pit in the MG and MDG, with a dosage of 20 U/kg and a volume of 10 mL/kg. At the same time, the rats in the SG and SDG groups were given the same volume of saline in the same way.
(§3) RC extract (2 g/kg, equivalent to human clinical equivalent dose) was given to rats via oral administration in SDG and MDG, and the same volume of normal saline was orally administered to the SG and MG. Rats were fasted for 12 h before the experiment. Blood was collected from the fundus venous plexus at 0, 5, 10, 15, 30, 45 min, 1, 2, 4, 6, 8, 12, and 24 h after in gavage, placed in a centrifuge tube impregnated with heparin sodium, centrifuged at 3500 rpm for 15 min, and then the plasma was collected and divided into two parts. One part was used for biochemical index determination and the other part was used to determine the content of pharmaceutical ingredients in vivo. After the experiment, the rats were sacrificed, and the hearts were placed in paraformaldehyde for histopathological analysis.
(§4) The plasma sample of 100 μL was accurately absorbed, 50 μL internal standard solution (Nimodipine, 500 ng/mL) was added, then 300 μL acetonitrile precipitated protein was added, vortex for 10 min, placed under ultrasound for 3 min, centrifuged at 13,000 rpm for 10 min, and then the supernatant was transferred to another centrifuge tube. It was then concentrated until dry with a rotary evaporator. The residue was redissolved with 100 μL 50% acetonitrile, swirled for 1 min, placed under ultrasonic for 3 min, centrifuged at 13,000 rpm for 10 min, and the supernatant was taken for analysis.
(§5) A validated HPLC-QQQ-MS/MS method was used for the determination of drug-derived components in plasma samples at different time points. The accompanying standard curve was substituted to calculate the content of the compounds to be measured, and then the PK parameters were calculated using DAS software (version 3.2.8), and the blood concentration–time curve was plotted using GraphPad Prism (version 8.0.2). PK behavior was compared between the sham operation and model group, and PK models were established, respectively.

[3] = PK of five RC components in sham operation administration (SDG, normal) rats after oral RC extract, HPLC-QQQ-MS/MS, DAS; type: in vivo, SD rats; conditions: rat, SDG rats, oral RC extract 2 g/kg, plasma, mean ± SD, n = 6; for AUC(0-t): read-out: AUC(0−t); for AUC(0-inf): read-out: AUC(0−∞); for CL/F: read-out: CLz/F (converted); for Cmax: read-out: Cmax; for MRT: read-out: MRT(0−); for MRT inf: read-out: MRT(0−∞); for Tmax: read-out: Tmax; for Vd/F: read-out: Vz/F; for half-life: read-out: t1/2z (converted)
Method: as §1, §2, §3, §4, §5

SOD = test: PK-PD sigmoid-Emax model, PD index SOD in MDG rats; type: in vivo, SD rats; set-up: Ke0: unit not given beside the values
[4] = rat
Method: A series concentration mixed reference solution with different concentrations was added to 100 μL plasma, and was treated according to the method under Section 4.6 to obtain the matrix standard curve sample. Samples with concentrations of 400, 100, and 10 ng/mL, respectively, were taken as quality control (QC) samples of high, medium, and low concentrations (HQC, MQC, LQC). The method was validated, including linearity, inter-day/intra-day precision, repeatability, stability, extraction recovery, and matrix effect, according to FDA bioanalytical method validation guidelines.

LDH = test: PK-PD sigmoid-Emax model, PD index LDH in MDG rats
Source text: Subsequently, we incorporated the PK and PD data to conduct PK-PD modeling through DAS.
Therefore, PK-PD correlation analysis was used in this study, linking dynamic concentration–time processes and effect–time profile relationships [20, 21, 22]. […] The model adopted in this study is the S-Emax model. In the equation, γ means the shape factor in the formula, affecting the slope and determining the steepness of the curve. Emax can provide the maximum response intensity, and ED50 is for evaluating the safety of the drug, which is understood as the amount of the drug that causes 50% of the maximum response intensity.
Plasma creatine kinase (CK), hydroxybutyrate dehydrogenase (HBDH), lactate dehydrogenase (LDH), and superoxide dismutase (SOD) activity was determined using an automatic biochemical analyzer.
The activity of the CK, HBDH, LDH, and SOD of plasma samples collected at different time points was determined using an automatic biochemical analyzer for PD index evaluation. […] Two compartmental methods were used, employing the drug and statistics, which was supplied by the Chinese Pharmacological Society. Then, the efficacy indicators were fitted in the PK-PD model.

AST = test: PK-PD sigmoid-Emax model, PD index AST in MDG rats; type: in vivo, SD rats; set-up: unit not given beside the values
[5] = in vivo, MDG (myocardial ischemia) rats, oral RC extract 2 g/kg, mean ± SD, n = 6
[6] = SD, po, 2 g/kg, MDG (myocardial ischemia) rats, oral RC extract 2 g/kg, mean ± SD, n = 6, read-out: Tmax
[7] = SD, po, 2 g/kg, according to the PK results, group not given, oral RC extract, read-out: Tmax (approximate)
[8] = MDG (myocardial ischemia) rats, oral RC extract 2 g/kg, mean ± SD, n = 6

## O=c1c(O)c(-c2ccc(O)cc2)oc2cc(O)cc(O)c12 [Kaempferol, kaempferol]
CK
  Emax: 2736.472
  Ke0: 2.998
[1]; modeled rats (disease state)
  AUC, MRT, t1/2, and Cmax in modeled rats: increased
  Clearance in modeled rats: decreased
HBDH
  Emax: 6565.084
  Ke0: 0.928
[2]; oral RC extract 2 g/kg
  Change of CLZ/F in MDG compared with SDG: marked decreasing tendency; also recorded: decreased significantly
  Change of Cmax in MDG compared with SDG: increased significantly; also recorded: significantly increased
[2]; [5]
  AUC(0-t): 354 ± 50.4 ng·h/mL
  AUC(0-inf): 645 ± 179 ng·h/mL
  CL/F: 140 mL/min/kg
  Cmax: 38.4 ± 4.92 ng/mL
  MRT: 9.05 ± 0.7 h
  MRT inf: 30.9 ± 14.1 h
  Vd/F: 245 ± 67 L/kg
  half-life: 1360 ± 639 min
[2]; in vivo, MDG (myocardial ischemia) rats, oral RC extract 2 g/kg, mean ± SD, n = 6, read-out: Tmax
  Tmax: 45 min
[3]; in vivo
  AUC(0-t): 306 ± 30.5 ng·h/mL
  AUC(0-inf): 427 ± 95.4 ng·h/mL
  CL/F: 203 mL/min/kg
  Cmax: 31.2 ± 1.53 ng/mL
  MRT: 8.54 ± 0.55 h
  MRT inf: 19.4 ± 9.37 h
  Tmax: 1.67 ± 1.21 h
  Vd/F: 224 ± 107 L/kg
  half-life: 847 ± 505 min
SOD
  Emax: 68.398
  Ke0: 0.115
[4]; 10 ng/mL
  Stability RE (%): 102.9%
[4]; 400 ng/mL
  Stability RE (%): 94.57%
[4]; 48 h, 10 ng/mL
  Stability RE (%): 101.5%
[4]; 48 h, 50 ng/mL
  Stability RE (%): 90.22%
[4]; 48 h, 400 ng/mL
  Stability RE (%): 92.55%
[4]; 10 days, 50 ng/mL
  Stability RE (%): 99.12%
[4]; 10 days, 400 ng/mL
  Stability RE (%): 100.4%
LDH
  Emax: 599.812
AST
  Emax: 1422.742
  Ke0: 2.998

## OC[C@H]1O[C@@H](OCCc2ccc(O)cc2)[C@H](O)[C@@H](O)[C@@H]1O [Salidroside, salidroside]
CK
  Emax: 2288.494
  Ke0: 2.698
[1]; hypoxia
  Systemic exposure in hypoxia: increased significantly
[1]
  Bioavailability under pathological conditions: increased significantly
HBDH
  Emax: 4898.547
  Ke0: 0.46
[2]; oral RC extract 2 g/kg
  Change of Cmax in MDG compared with SDG: increased significantly; also recorded: significantly increased
[2]; [6]
  Tmax: 49.8 ± 7.8 min
[2]; [7]
  Tmax: ~60 min
[2]; [8]
  AUC(0-t): 7790 ± 1160 ng·h/mL
  AUC(0-inf): 10000 ng·h/mL
  CL/F: 8.67 mL/min/kg
  Cmax: 1350 ± 133 ng/mL
  MRT: 6.7 ± 0.61 h
  MRT inf: 16.7 ± 9.83 h
  Vd/F: 10.7 ± 7.46 L/kg
  half-life: 926 ± 673 min
[3]
  AUC(0-t): 5710 ± 321 ng·h/mL
  AUC(0-inf): 8350 ± 2310 ng·h/mL
  CL/F: 10.7 mL/min/kg
  Cmax: 1010 ± 84.2 ng/mL
  MRT: 7.14 ± 0.51 h
  Tmax: 0.75 ± 0.16 h
  Vd/F: 15.2 ± 8.77 L/kg
  half-life: 1190 ± 962 min
SOD
  Emax: 71.79
  Ke0: 0.025
[4]; 10 ng/mL
  Stability RE (%): 90.22%
[4]; 400 ng/mL
  Stability RE (%): 99.82%
[4]; 48 h, 10 ng/mL
  Stability RE (%): 89.72%
[4]; 48 h, 50 ng/mL
  Stability RE (%): 90.35%
[4]; 48 h, 400 ng/mL
  Stability RE (%): 98.56%
[4]; 10 days, 10 ng/mL
  Stability RE (%): 88.35%
[4]; 10 days, 50 ng/mL
  Stability RE (%): 100.1%
[4]; 10 days, 400 ng/mL
  Stability RE (%): 97.63%
LDH
  Emax: 482.587
  Ke0: 2.476
AST
  Emax: 1091.001
  Ke0: 2.821

## OCCc1ccc(O)cc1 [Tyrosol, tyrosol]
CK
  Emax: 2289.882
  Ke0: 2.998
[1]
  Bioavailability under pathological conditions: increased significantly
HBDH
  Emax: 7149.416
  Ke0: 0.724
[2]; oral RC extract 2 g/kg
  Change of CLZ/F in MDG compared with SDG: marked decreasing tendency; also recorded: decreased significantly
[2]; [6]
  Tmax: 57.6 ± 6 min
[2]; [7]
  Tmax: ~60 min
[2]; [8]
  AUC(0-t): 837 ± 66.8 ng·h/mL
  AUC(0-inf): 1100 ± 258 ng·h/mL
  CL/F: 79.2 mL/min/kg
  Cmax: 143.4 ± 1.41 ng/mL
  MRT: 6.54 ± 0.91 h
  MRT inf: 16.8 ± 9.96 h
  Vd/F: 94.4 ± 44.4 L/kg
  half-life: 934 ± 47.4 min
[3]
  AUC(0-t): 653 ± 63.2 ng·h/mL
  AUC(0-inf): 729 ± 49.2 ng·h/mL
  CL/F: 115 mL/min/kg
  Cmax: 132 ± 12.6 ng/mL
  MRT: 5.59 ± 0.5 h
  MRT inf: 9.86 ± 5.68 h
  Tmax: 1.17 ± 0.41 h
  Vd/F: 97 ± 70.2 L/kg
  half-life: 601 ± 458 min
SOD
  Emax: 68.804
  Ke0: 0.043
[4]; 10 ng/mL
  Stability RE (%): 94.31%
[4]; 50 ng/mL
  Stability RE (%): 96.93%
[4]; 400 ng/mL
  Stability RE (%): 97.75%
[4]; 48 h, 10 ng/mL
  Stability RE (%): 85.44%
[4]; 48 h, 50 ng/mL
  Stability RE (%): 90.28%
[4]; 10 days, 10 ng/mL
  Stability RE (%): 99.52%
[4]; 10 days, 400 ng/mL
  Stability RE (%): 89.70%
LDH
  Emax: 483.057
  Ke0: 2.848
AST
  Emax: 1213.835
  Ke0: 2.998

## rhodiosin
CK
  Emax: 2289.293
  Ke0: 2.998
HBDH
  Emax: 4335.008
  Ke0: 0.469
SOD
  Emax: 72.933
  Ke0: 0.055
LDH
  Emax: 484.31
  Ke0: 2.998
AST
  Emax: 1084.02
  Ke0: 2.998
